Test: xn = mol fraction of the nth substance listed

CCNCC + CCCCCCO
viscosity [mPa·s], 100 kPa
Conditions	x1 = 0.0806	x1 = 0.1594	x1 = 0.2398	x1 = 0.3506	x1 = 0.4394	x1 = 0.559	x1 = 0.6502	x1 = 0.7392	x1 = 0.8506	x1 = 0.9401
293.15 K	4.73	4.11	3.54	2.83	2.32	1.71	1.32	0.98	0.65	0.43
303.15 K	3.45	3.02	2.59	2.08	1.7	1.27	1	0.75	0.52	0.37
313.15 K	2.58	2.24	1.92	1.53	1.25	0.93	0.73	0.55	0.398	0.31
323.15 K	1.97	1.71	1.46	1.16	0.95	0.71	0.56	0.44	0.33	0.27

COCCOCCOCCOC + CCCCCCO
101 kPa
Conditions	viscosity [mPa·s]
293.15 K, x1 = 0.04492	4.503
293.15 K, x1 = 0.09537	3.827
293.15 K, x1 = 0.1973	3.104
293.15 K, x1 = 0.2976	2.686
293.15 K, x1 = 0.4067	2.427
293.15 K, x1 = 0.5095	2.269
293.15 K, x1 = 0.6012	2.199
293.15 K, x1 = 0.6895	2.144
293.15 K, x1 = 0.7928	2.134
293.15 K, x1 = 0.8972	2.135
293.15 K, x1 = 0.9607	2.158
303.15 K, x1 = 0.04662	3.285
303.15 K, x1 = 0.09419	2.854
303.15 K, x1 = 0.2001	2.327
303.15 K, x1 = 0.2995	2.056
303.15 K, x1 = 0.4075	1.869
303.15 K, x1 = 0.5134	1.747
303.15 K, x1 = 0.5831	1.711
303.15 K, x1 = 0.6929	1.697
303.15 K, x1 = 0.7889	1.712
303.15 K, x1 = 0.9161	1.735
303.15 K, x1 = 0.9401	1.753
313.15 K, x1 = 0.04436	2.565
313.15 K, x1 = 0.09283	2.292
313.15 K, x1 = 0.2014	1.894
313.15 K, x1 = 0.2982	1.701
313.15 K, x1 = 0.41	1.56
313.15 K, x1 = 0.5102	1.491
313.15 K, x1 = 0.601	1.454
313.15 K, x1 = 0.6974	1.435
313.15 K, x1 = 0.8008	1.435
313.15 K, x1 = 0.8996	1.453
313.15 K, x1 = 0.9626	1.462

Nc1ccccc1 + CCCCCCO
viscosity [mPa·s], 100 kPa
Conditions	293.15 K	303.15 K	313.15 K	323.15 K
x1 = 0.0816	4.79	3.54	2.65	2.05
x1 = 0.1448	–	3.327	2.396	–
x1 = 0.1533	4.4	3.29	2.48	1.92
x1 = 0.2422	4.1	3.09	2.33	1.82
x1 = 0.2758	–	2.857	1.969	–
x1 = 0.3514	3.81	2.87	2.21	1.73
x1 = 0.4176	–	2.453	1.627	–
x1 = 0.4449	3.64	2.74	2.12	1.66
x1 = 0.5246	–	2.213	1.457	–
x1 = 0.5571	3.55	2.61	2.04	1.61
x1 = 0.6037	–	2.119	1.397	–
x1 = 0.6483	3.52	2.59	2.03	1.61
x1 = 0.7131	–	2.101	1.432	–
x1 = 0.7361	3.55	2.61	2.05	1.63
x1 = 0.8283	–	2.283	1.639	–
x1 = 0.8542	3.73	2.72	2.16	1.71
x1 = 0.932	–	2.648	1.979	–
x1 = 0.9356	4.03	2.93	2.32	1.84

CCNCC + CCCCCO
viscosity [mPa·s], 100 kPa
Conditions	x1 = 0.0806	x1 = 0.1601	x1 = 0.236	x1 = 0.3486	x1 = 0.4399	x1 = 0.5596	x1 = 0.6501	x1 = 0.7397	x1 = 0.8494	x1 = 0.9401
293.15 K	3.45	2.94	2.51	1.92	1.52	1.09	0.833	0.645	0.476	0.373
303.15 K	2.61	2.22	1.87	1.43	1.12	0.79	0.618	0.496	0.386	0.323
313.15 K	2	1.7	1.43	1.09	0.847	0.594	0.47	0.38	0.317	0.28
323.15 K	1.54	1.31	1.09	0.83	0.64	0.45	0.357	0.3	0.261	0.245

— the CheMixHub viscosity set
